# Target: T1, IRAK4 (Homo sapiens, UniProt Q9NWZ3)
# T1 construct: 293Tcells expressing HiBiT-tagged IRAK4 were then added into 384-well plates
# T1 sequence (Q9NWZ3 1-460): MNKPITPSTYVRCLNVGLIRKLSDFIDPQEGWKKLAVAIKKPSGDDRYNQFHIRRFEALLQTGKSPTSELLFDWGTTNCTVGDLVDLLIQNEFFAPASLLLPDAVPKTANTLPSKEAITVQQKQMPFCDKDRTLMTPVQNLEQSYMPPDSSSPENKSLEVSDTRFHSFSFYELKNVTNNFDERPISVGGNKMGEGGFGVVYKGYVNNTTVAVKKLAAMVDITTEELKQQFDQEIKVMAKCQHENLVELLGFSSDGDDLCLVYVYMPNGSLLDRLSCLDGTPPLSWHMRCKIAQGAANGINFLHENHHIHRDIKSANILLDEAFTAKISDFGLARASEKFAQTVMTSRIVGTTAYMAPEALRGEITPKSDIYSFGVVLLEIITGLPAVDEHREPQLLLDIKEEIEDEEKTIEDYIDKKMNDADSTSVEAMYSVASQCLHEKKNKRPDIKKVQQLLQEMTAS
# Experiment: IRAK4 Degradation Assay, HiBiT Method
# Format: cell-based
# Settings: 293T cells expressing HiBiT-tagged IRAK4, 6 hours
# In short: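 293T cells with HiBiT knocked in at the C-terminus of endogenous IRAK4, 10,000 per well, treated 6 h at 37 °C with an 11-point half-log series ([…]), in duplicate. Remaining IRAK4 read by Nano-Glo HiBiT lytic luminescence against DMSO-only and media-only controls.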
row,Compound,DC50
1,"CC(C)Oc1cc2nn([C@H]3CC[C@H](CN4CCOC[C@@H]4Cc4ccc(OC5CCC(=O)NC5=O)cc4)CC3)cc2cc1C(=O)Nc1cccn([C@H]2C[C@H]2F)c1=O (stereo partly drawn) [Example 135, 2-((1S,4S)-4-(((3S)-3-(4-((2,6-dioxopiperidin-3-yl)oxy)benzyl)morpholino)methyl)cyclohexyl)-N-(1-((1S,2R)-2-fluorocyclopropyl)-2-oxo-1,2-dihydropyridin-3-yl)-6-isopropoxy-2H-indazole-5-carboxamide]",< 10 nM
2,"Cc1cnc2c(NC(=O)c3cn4cc([C@H]5CC[C@H](CN6CCC(c7ccc8c(c7)n(C)c(=O)n8C7CCC(=O)NC7=O)CC6)CC5)nc4cc3OC(C)C)cnn2c1 (stereo partly shown) [Example 51, 2-[4-[[4-[1-(2,6-dioxo-3-piperidyl)-3-methyl-2-oxo-benzimidazol-5-yl]-1-piperidyl]methyl]cyclohexyl]-7-isopropoxy-N-(6-methylpyrazolo[1,5-a]pyrimidin-3-yl)imidazo[1,2-a]pyridine-6-carboxamide]",< 10 nM
3,"CC(C)Oc1cc2nc(C3CCN(CC(F)=C4CCN(c5ccc(NC6CCC(=O)NC6=O)cc5)CC4)CC3)cn2cc1C(=O)Nc1cccc(C(F)F)n1 (stereo not shown) [Example 111, N-(6-(difluoromethyl)pyridin-2-yl)-2-(1-(2-(1-(4-((2,6-dioxopiperidin-3-yl)amino)phenyl)piperidin-4-ylidene)-2-fluoroethyl)piperidin-4-yl)-7-isopropoxyimidazo[1,2-a]pyridine-6-carboxamide]",10 to 100 nM
4,"CC(C)Oc1cc2nc([C@H]3CC[C@H](CN(C)C4CCN(c5ccc6c(c5)n(C)c(=O)n6C5CCC(=O)NC5=O)CC4)CC3)cn2cc1C(=O)Nc1cccc(C(F)(F)F)n1 (stereo partly shown) [Example 10, 2-[4-[[[1-[1-(2,6-dioxo-3-piperidyl)-3-methyl-2-oxo-benzimidazol-5-yl]-4-piperidyl]-methyl-amino]methyl]cyclohexyl]-7-isopropoxy-N-[6-(trifluoromethyl)-2-pyridyl]imidazo[1,2-a]pyridine-6-carboxamide]",10 to 100 nM
5,"CC(C)Oc1cc2nn([C@H]3CC[C@H](CN4CCN(c5ncc(C6CCC(=O)NC6=O)cc5F)CC(O)C4)CC3)cc2cc1C(=O)Nc1cccn([C@H]2C[C@H]2F)c1=O (stereo partly drawn) [Example 119, 2-((1r,4S)-4-((4-(5-(2,6-dioxopiperidin-3-yl)-3-fluoropyridin-2-yl)-6-hydroxy-1,4-diazepan-1-yl)methyl)cyclohexyl)-N-(1-((1S,2R)-2-fluorocyclopropyl)-2-oxo-1,2-dihydropyridin-3-yl)-6-isopropoxy-2H-indazole-5-carboxamide]",< 10 nM
6,"CC(C)Oc1cc2nn([C@H]3CC[C@H](CN4CCN(c5ccn6c(N7CCC(=O)NC7=O)cnc6c5)CC4)CC3)cc2cc1C(=O)Nc1cccn([C@H]2C[C@H]2F)c1=O [Example 146, 2-((1r,4S)-4-((4-(3-(2,4-dioxotetrahydropyrimidin-1(2H)-yl)imidazo[1,2-a]pyridin-7-yl)piperazin-1-yl)methyl)cyclohexyl)-N-(1-((1S,2R)-2-fluorocyclopropyl)-2-oxo-1,2-dihydropyridin-3-yl)-6-isopropoxy-2H-indazole-5-carboxamide]",< 10 nM
7,"CC(C)Oc1cc2nn([C@H]3CC[C@H](CN4CCC(c5ccc6c(N7CCC(=O)NC7=O)nn(C)c6c5)CC4)CC3)cc2cc1C(=O)Nc1cccn([C@H]2C[C@H]2F)c1=O [Example 144, 2-((1r,4S)-4-((4-(3-(2,4-dioxotetrahydropyrimidin-1(2H)-yl)-1-methyl-1H-indazol-6-yl)piperidin-1-yl)methyl)cyclohexyl)-N-(1-((1S,2R)-2-fluorocyclopropyl)-2-oxo-1,2-dihydropyridin-3-yl)-6-isopropoxy-2H-indazole-5-carboxamide]",< 10 nM
8,"CC(C)Oc1cc2nc(C3CCN(C(=O)CCCNc4ccc(C5CCC(=O)NC5=O)cn4)CC3)cn2cc1C(=O)Nc1cccn([C@H]2C[C@H]2F)c1=O (stereo partly drawn) [Example 164, 2-(1-(4-((5-(2,6-dioxopiperidin-3-yl)pyridin-2-yl)amino)butanoyl)piperidin-4-yl)-N-(1-((1S,2R)-2-fluorocyclopropyl)-2-oxo-1,2-dihydropyridin-3-yl)-7-isopropoxyimidazo[1,2-a]pyridine-6-carboxamide]",10 to 100 nM
9,CC(C)Oc1nc2nc(C3CCN(C(=O)N(C)C4CCN(c5ncc(C6CCC(=O)NC6=O)cc5F)CC4)CC3)cn2cc1C(=O)Nc1cccn([C@H]2C[C@H]2F)c1=O (stereo partly shown) [Example 193],10 to 100 nM
10,"CC(C)Oc1cc2nn(C3CCN(C(=O)OC4CCN(c5ncc(C6CCC(=O)NC6=O)cc5F)CC4)CC3)cc2cc1C(=O)Nc1cccn([C@H]2C[C@H]2F)c1=O (stereo partly drawn) [Example 156, 1-(5-(2,6-dioxopiperidin-3-yl)-3-fluoropyridin-2-yl)piperidin-4-yl 4-(5-((1-((1S,2R)-2-fluorocyclopropyl)-2-oxo-1,2-dihydropyridin-3-yl)carbamoyl)-6-isopropoxy-2H-indazol-2-yl)piperidine-1-carboxylate]",10 to 100 nM
11,"CC(C)Oc1cc2nc([C@H]3CC[C@H](CN4CCC(c5ccc(CN6CCC(=O)NC6=O)cc5)CC4)CC3)cn2cc1C(=O)Nc1cccc(C(F)F)n1 [Example 37, N-[6-(difluoromethyl)-2-pyridyl]-2-[4-[[4-[4-[(2,4-dioxohexahydropyrimidin-1-yl)methyl]phenyl]-1-piperidyl]methyl]cyclohexyl]-7-isopropoxy-imidazo[1,2-a]pyridine-6-carboxamide]",10 to 100 nM
12,"CC(C)Oc1cc2nc([C@H]3CC[C@H](CN(C)C4CCN(c5cccc(NC6CCC(=O)NC6=O)c5)CC4)CC3)cn2cc1C(=O)Nc1cccc(C(F)(F)F)n1 (stereo partly shown) [Example 9, 2-[4-[[[1-[3-[(2,6-dioxo-3-piperidyl)amino]phenyl]-4-piperidyl]-methyl-amino]methyl]cyclohexyl]-7-isopropoxy-N-[6-(trifluoromethyl)-2-pyridyl]imidazo[1,2-a]pyridine-6-carboxamide]",500 to 1000 nM
13,CC(C)Oc1cc2nn([C@H]3CC[C@H](CN4CC[C@H](c5ccc(OC6CCC(=O)NC6=O)cc5)[C@@H](O)C4)CC3)cc2cc1C(=O)Nc1cccn([C@H]2C[C@H]2F)c1=O (stereo partly shown) [Example 187],< 10 nM
14,"CC(C)Oc1cc2nn([C@H]3CC[C@H](CN4CCC(c5ccc(O[C@@H]6CCC(=O)NC6=O)cc5)CC4)CC3)cc2cc1C(=O)Nc1cccn(C2CC2)c1=O (single isomer, unassigned) [Example 143]",10 to 100 nM
15,"CC(C)Oc1cc2nc(C3CCN(C(=O)CN4CCC(c5ccc(C6(F)CCC(=O)NC6=O)cc5)CC4)CC3)cn2cc1C(=O)Nc1cccc(C(F)F)n1 (stereo not shown) [Example 88, N-[6-(difluoromethyl)-2-pyridyl]-2-[1-[2-[4-[4-(3-fluoro-2,6-dioxo-3-piperidyl)phenyl]-1-piperidyl]acetyl]-4-piperidyl]-7-isopropoxy-imidazo[1,2-a]pyridine-6-carboxamide]",10 to 100 nM
16,"CC(C)Oc1cc2nn(C3CCN(C(=O)CC4(O)CCN(c5ccc(NC6CCC(=O)NC6=O)cc5F)CC4)CC3)cc2cc1C(=O)Nc1cccc(C(F)(F)F)n1 (stereo not shown) [Example 59, 2-[1-[2-[1-[4-[(2,6-dioxo-3-piperidyl)amino]-2-fluoro-phenyl]-4-hydroxy-4-piperidyl]acetyl]-4-piperidyl]-6-isopropoxy-N-[6-(trifluoromethyl)-2-pyridyl]indazole-5-carboxamide]",10 to 100 nM

# — patent US20240343733A1, “COMPOUNDS FOR TARGETING DEGRADATION OF IRAK4 PROTEINS” (BIOGEN MA INC., priority 2021, published 2024)
